Drawing on patent publication US8524726B2, “Amido derivatives and their use as positive allosteric modulators of metabotropic glutamate receptors” (Addex Pharma, SA, priority 2007, dated 2013), this text covers melting point and EC50 for 34 compounds.

For series [1], the target named is T1, recombinant human mGluR4a receptors (Homo sapiens, UniProt Q14833).
T1 construct: expressed in transfected cells
In words: Fluorescent cell based Ca2+ mobilization assay (FLIPR) on HEK-293 cells expressing human mGluR4. To be noted: HEK-293 cells expressing hmGluR4, Fluo-4, potentiation of EC25 glutamate; mean of at least three independent experiments in duplicate; read-out: Ca2+ Flux (mean EC50). The text has this: mGluR4 Assay on HEK-Expressing Human mGluR4
Their activity was examined on recombinant human mGluR4a receptors by detecting changes in intracellular Ca^2+ concentration, using the fluorescent Ca^2+-sensitive dye Fluo-4-(AM) and a Fluorometric Imaging Plate Reader (FLIPR, Molecular Devices, Sunnyvale, Calif.)
Transfection and Cell Culture
The cDNA encoding the human metabotropic glutamate receptor (hmGluR4), (accession number NM_000841.1, NCBI Nucleotide database browser), was subcloned into an expression vector containing also the hygromycin resistance gene. In parallel, the cDNA encoding a G protein allowing redirection of the activation signal to intracellular calcium flux was subcloned into a different expression vector containing also the puromycin resistance gene. […] Positive cellular clones expressing hmGluR4 were identified in a functional assay measuring changes in calcium fluxes in response to glutamate or selective known mGluR4 orthosteric agonists and antagonists
HEK-293 cells expressing hmGluR4 were maintained in media containing DMEM, dialyzed Fetal Calf Serum (10%), Glutamax™ (2 mM), Penicillin (100 units/ml), Streptomycin (100 μg/ml), Geneticin (100 μg/ml) and Hygromycin-B (40 μg/ml) and puromycin (1 μg/ml) at 37° C./5% CO2.
Fluorescent Cell Based-Ca^2+ Mobilization Assay
Human mGluR4 HEK-293 cells were plated out 24 hours prior to FLIPR^384 assay in black-walled, clear-bottomed, poly-L-ornithine-coated 384-well plates at a density of 25,000 cells/well in a glutamine/glutamate free DMEM medium containing foetal bovine serum (10%), penicillin (100 units/ml) and streptomycin (100 μg/ml) at 37° C./5% CO2.
On the day of the assay, the medium was aspirated and the cells were loaded with a 3 μM solution of Fluo-4-AM (LuBioScience, Lucerne, Switzerland) in 0.03% pluronic acid. After 1 hour at 37° C./5% CO2, the non incorporated dye was removed by washing cell plate with the assay buffer and the cells were left in the dark at room temperature for six hours before testing. All assays were performed in a pH 7.4 buffered-solution containing 20 mM HEPES, 143 mM NaCl, 6 mM KCl, 1 mM MgSO4, 1 mM CaCl2, 0.125 mM sulfapyrazone, 0.1% glucose.
After 10 s of basal fluorescence recording, various concentrations of the compounds of the invention were added to the cells. Changes in fluorescence levels were first monitored for 180 s in order to detect any agonist activity of the compounds. Then the cells were stimulated by an EC25 glutamate concentration for an additional 110 s in order to measure enhancing activities of the compounds of the invention. EC25 glutamate concentration is the concentration giving 25% of the maximal glutamate response.
The concentration-response curves of representative compounds of the present invention were generated using the Prism GraphPad software (Graph Pad Inc, San Diego, USA). The curves were fitted to a four-parameter logistic equation: (Y=Bottom+(Top-Bottom)/(1+10^((Log EC50−X)*Hill Slope) allowing determination of EC50 values.
Background: Calcium assays in cells follow changes in intracellular calcium, usually with a dye or a luminescent sensor.

SMILES strings stand for the structures.

T1 sequence (Q14833 33-912): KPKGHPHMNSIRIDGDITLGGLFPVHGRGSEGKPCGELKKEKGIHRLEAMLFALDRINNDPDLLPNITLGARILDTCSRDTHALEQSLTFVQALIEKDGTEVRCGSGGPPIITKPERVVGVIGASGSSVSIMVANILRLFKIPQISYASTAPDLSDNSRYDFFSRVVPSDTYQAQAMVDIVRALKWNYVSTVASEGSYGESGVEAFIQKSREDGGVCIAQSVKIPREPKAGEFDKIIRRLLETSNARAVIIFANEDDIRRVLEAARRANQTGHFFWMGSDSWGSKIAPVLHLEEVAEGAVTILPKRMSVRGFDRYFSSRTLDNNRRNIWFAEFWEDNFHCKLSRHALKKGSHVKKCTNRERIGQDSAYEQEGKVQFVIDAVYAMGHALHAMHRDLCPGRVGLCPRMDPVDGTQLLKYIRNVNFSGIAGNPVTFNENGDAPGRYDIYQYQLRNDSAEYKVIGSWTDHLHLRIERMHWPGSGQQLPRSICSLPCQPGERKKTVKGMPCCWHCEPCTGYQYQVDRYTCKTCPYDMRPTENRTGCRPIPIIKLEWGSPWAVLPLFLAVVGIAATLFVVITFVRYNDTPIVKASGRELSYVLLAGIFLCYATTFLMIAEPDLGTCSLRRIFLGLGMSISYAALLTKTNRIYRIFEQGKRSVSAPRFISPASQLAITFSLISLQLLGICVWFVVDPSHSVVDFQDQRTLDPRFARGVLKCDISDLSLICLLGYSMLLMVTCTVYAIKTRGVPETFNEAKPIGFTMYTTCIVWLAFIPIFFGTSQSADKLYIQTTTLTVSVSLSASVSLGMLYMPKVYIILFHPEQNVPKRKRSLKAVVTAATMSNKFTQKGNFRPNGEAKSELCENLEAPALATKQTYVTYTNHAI

On to `O=C(Nc1cccc(Cl)c1)c1cccs1` [Compound 1-2, N-(3-Chlorophenyl)thiophene-2-carboxamide], for which the melting point was in the range of 139 to 140 °C. In addition, the concentration for a half-maximal effect (EC50) in series [1] was 1 to 10 µM.

With `O=C(Nc1cccc(Cl)c1)c1ccccn1` [Compound 1-3, N-(3-Chlorophenyl)picolinamide], the EC50 in series [1] is < 1 µM.

`O=C(Nc1cccc(F)c1)c1ccccn1` [Compound 1-4, N-(3-Fluorophenyl)picolinamide]: the melting point lay in the range of 74 to 75 °C.

In turn, `O=C(Nc1cccc(Cl)c1)c1ccc[nH]1` [Compound 1-5, N-(3-Chlorophenyl)-1H-pyrrole-2-carboxamide] yielded a melting point of 138 to 140 °C. Also, the EC50 in series [1] was 1 to 10 µM.

With `O=C(COc1cccc(NC(=O)c2ccco2)c1)c1ccc(F)cc1` [Compound 2-2, Furan-2-carboxylic acid {3-[2-(4-fluoro-phenyl)-2-oxo-ethoxy]-phenyl}-amide], the melting point was in the range of 148 to 149 °C.

In the case of `COc1cccc(NC(=O)c2csc(C)n2)c1` [Compound 2-4, N-(3-Methoxyphenyl)-2-methylthiazole-4-carboxamide], the melting point is 87 to 89 °C. Further, the EC50 in series [1] was 1 to 10 µM.

For `COc1cccc(NC(=O)c2nccs2)c1` [Compound 2-5, N-(3-Methoxyphenyl)thiazole-2-carboxamide], the melting point lay in the range of 53 to 57 °C. For the same compound, the EC50 in series [1] was in the range of 1 to 10 µM.

Turning to `O=C(COc1cccc(NC(=O)c2ccccn2)c1)c1cccc(Cl)c1` [Compound 2-7, N-(3-(2-(3-Chlorophenyl)-2-oxoethoxy)phenyl)picolinamide], the melting point lay in the range of 139 to 140 °C. Besides, the EC50 in series [1] was 1 to 10 µM.

With `O=C(Nc1cccc(OCCCc2ccccc2)c1)c1ccccn1` [Compound 2-8, N-(3-(3-Phenylpropoxy)phenyl)picolinamide], the melting point is 49 to 51 °C. The EC50 in series [1] lay in the range of 1 to 10 µM.

`COc1ccccc1C(=O)COc1cccc(NC(=O)c2ccccn2)c1` [Compound 2-9, N-(3-(2-(2-Methoxyphenyl)-2-oxoethoxy)phenyl)picolinamide] returned a melting point of 136 to 137 °C. Also, the EC50 in series [1] was 1 to 10 µM.

Regarding `COc1cccc(C(=O)COc2cccc(NC(=O)c3ccccn3)c2)c1` [Compound 2-10, N-(3-(2-(3-Methoxyphenyl)-2-oxoethoxy)phenyl)picolinamide], the melting point fell in the range of 114.5 to 115.5 °C. The EC50 in series [1] is 1 to 10 µM.

Compound `O=C(COc1cccc(NC(=O)c2ccccn2)c1)c1cccc(F)c1` [Compound 2-11, N-(3-(2-(3-Fluorophenyl)-2-oxoethoxy)phenyl)picolinamide] registered a melting point of 118 to 121 °C. In addition, the EC50 in series [1] fell in the range of 1 to 10 µM.

In the case of `O=C(Nc1cccc(OCC(=O)c2ccccc2Cl)c1)c1ccccn1` [Compound 2-12, N-(3-(2-(2-Chlorophenyl)-2-oxoethoxy)phenyl)picolinamide], the EC50 in series [1] fell in the range of 1 to 10 µM.

Turning to `COc1cccc(NC(=O)c2cc(C)on2)c1` [Compound 2-13, N-(3-Methoxyphenyl)-5-methylisoxazole-3-carboxamide], the melting point lay within 98 to 101 °C. Moreover, the EC50 in series [1] is 1 to 10 µM.

With `COc1cc(NC(=O)c2ccccn2)ccc1F` [Compound 2-14, N-(4-Fluoro-3-methoxyphenyl)picolinamide], the EC50 in series [1] was < 1 µM.

In turn, `O=C(Nc1cccc(OCC(=O)c2ccccc2F)c1)c1ccccn1` [Compound 2-15, N-(3-(2-(2-Fluorophenyl)-2-oxoethoxy)phenyl)picolinamide] had a melting point of 98 to 101 °C. Further, in series [1], the EC50 is 1 to 10 µM.

Take `COc1cccc(NC(=O)c2ccncn2)c1` [Compound 2-16, N-(3-Methoxyphenyl)pyrimidine-4-carboxamide]: the melting point lay within 119 to 122 °C. Further, the half-maximal effective concentration (EC50) in series [1] was in the range of 1 to 10 µM.

In the case of `COc1cc(NC(=O)c2cccc(F)n2)ccc1F` [Compound 2-17, 6-Fluoro-N-(4-fluoro-3-methoxyphenyl)picolinamide], the melting point fell in the range of 124 to 125 °C. Besides, the EC50 in series [1] lay within 1 to 10 µM.

`COc1cc(NC(=O)c2nccs2)ccc1F` [Compound 2-18, N-(4-Fluoro-3-methoxyphenyl)thiazole-2-carboxamide]: the melting point was 103 to 105 °C. In addition, the EC50 in series [1] was in the range of 1 to 10 µM.

`O=C(Nc1ccc(Oc2ncccn2)c(Cl)c1)c1ccccn1` [Compound 3-2, N-(3-Chloro-4-(pyrimidin-2-yloxy)phenyl)picolinamide]: the melting point lay in the range of 195 to 197 °C. Moreover, the EC50 in series [1] was < 1 µM.

Compound `Cc1nc(C(=O)Nc2ccc(Oc3ncccn3)c(Cl)c2)cs1` [Compound 3-3, N-(3-Chloro-4-(pyrimidin-2-yloxy)phenyl)-2-methylthiazole-4-carboxamide] had a melting point of 142 to 150 °C.

Turning to `O=C(Nc1ccc(Oc2ncccn2)c(Cl)c1)c1nccs1` [Compound 3-4, N-(3-Chloro-4-(pyrimidin-2-yloxy)phenyl)thiazole-2-carboxamide], the melting point amounted to 154 °C. Also, in series [1], the EC50 lay within 1 to 10 µM.

Consider `O=C(Nc1ccc(Oc2ccccn2)c(Cl)c1)c1ccccn1` [Compound 3-5, N-(3-Chloro-4-(pyridin-2-yloxy)phenyl)picolinamide], for which the melting point is 254 to 260 °C. Further, the EC50 in series [1] is < 1 µM.

Compound `O=C(Nc1ccc(Oc2cc(F)ccc2F)c(Cl)c1)c1ccccn1` [Compound 3-6, N-(3-Chloro-4-(2,5-difluorophenoxy)phenyl)picolinamide] registered a melting point of 102 to 104 °C.

Regarding `O=C(Nc1ccc(Oc2ccc(C(F)(F)F)cn2)c(Cl)c1)c1ccccn1` [Compound 3-8, N-(3-Chloro-4-(5-(trifluoromethyl)pyridin-2-yloxy)phenyl)picolinamide], the melting point lay within 92 to 94 °C. For the same compound, in series [1], the concentration for a half-maximal effect (EC50) lay in the range of 1 to 10 µM.

Consider `COc1cc(NC(=O)c2ccccn2)ccc1Oc1ncccn1` [Compound 3-9, N-(3-Methoxy-4-(pyrimidin-2-yloxy)phenyl)picolinamide], for which the melting point is 203 to 205 °C.

Take `O=C(Nc1ccc(Oc2cccc(F)c2)c(Cl)c1)c1ccccn1` [Compound 3-12, N-(3-Chloro-4-(3-fluorophenoxy)phenyl)picolinamide]: the melting point fell in the range of 78 to 80 °C.

In the case of `O=C(Nc1ccc(Oc2ccc(F)cc2)c(Cl)c1)c1ccccn1` [Compound 3-13, N-(3-Chloro-4-(4-fluorophenoxy)phenyl)picolinamide], the melting point is 104 to 105 °C.

As for `N#Cc1ccc(Oc2ccc(NC(=O)c3ccccn3)cc2Cl)cc1` [Compound 3-15, N-(3-Chloro-4-(4-cyanophenoxy)phenyl)picolinamide], the melting point lay within 157 to 159 °C. For the same compound, the EC50 in series [1] is < 1 µM.

The compound `N#Cc1cccnc1Oc1ccc(NC(=O)c2ccccn2)cc1Cl` [Compound 3-16, N-(3-Chloro-4-(3-cyanopyridin-2-yloxy)phenyl)picolinamide] registered a melting point of 223 to 228 °C.

`CC(C)C(=O)N1CCN(c2ccc(NC(=O)c3ccccn3)cc2Cl)CC1` [Compound 4-2, N-(3-Chloro-4-(4-isobutyrylpiperazin-1-yl)phenyl)picolinamide] showed a melting point of 156 to 158 °C.

For the compound `CCC(=O)N1CCN(c2ccc(NC(=O)c3ccccn3)cc2Cl)CC1` [Compound 4-3, N-(3-Chloro-4-(4-propionylpiperazin-1-yl)phenyl)picolinamide], the melting point is 176 to 179 °C. Besides, in series [1], the EC50 fell in the range of 1 to 10 µM.

`O=C(Nc1ccc(N2CCN(C(=O)c3ccccc3)CC2)c(Cl)c1)c1ccccn1` [Compound 4-4, N-(4-(4-Benzoylpiperazin-1-yl)-3-chlorophenyl)picolinamide] yielded a melting point of 161 to 163 °C. Further, in series [1], the EC50 was in the range of 1 to 10 µM.

`O=C(Nc1ccc(N2CCN(Cc3ccccc3)CC2)c(Cl)c1)c1ccccn1` [Compound 4-5, N-(4-(4-Benzylpiperazin-1-yl)-3-chlorophenyl)picolinamide] registered a melting point of 92 to 94 °C. In addition, the EC50 in series [1] was 1 to 10 µM.

What is called melting point is the temperature, or range, at which the solid turns liquid. Broadly, the EC50 is the concentration giving half of the maximal effect.
